Experimental data from US20150337267A1, “REPROGRAMMED STEM CELL” (KYOTO UNIVERSITY, priority 2013, published 2015).

Columns and labels:
[1] = tested on: phosphorylated mTOR (p-mTOR); assay: Phosphorylation of mTOR in iRS cells; format: cell-based, human; conditions: addition to conditioned medium, vs DMSO control
Procedure: (§1) CM is conditioned medium.
iRS cells were plated at a high density (1×10^6 cells) on a 3 cm dish coated with Matrigel, 0.5 mM VPA was added to the MEF-conditioned medium and culture was continued. […] Phosphorylation of mTOR then was measured.

iRS cells = assay: Conversion of iRS cells to DsRed-negative (pluripotent) cells in high-density culture; format: cell-based, human; conditions: 0.5 mM added to MEF-conditioned medium, high-density culture (1×10^6 cells, 3 cm dish), day 6 after plating
Procedure: as §1
The iRS cells were plated at a high density (1×10^6 cells) on a 3 cm dish coated with Matrigel, and culture was continued in a MEF-conditioned medium. From day 3, DsRed-negative cells were occasionally found, and DsRed-negative cell clump could be confirmed on day 6. On day 10, ES cell-like colony could be confirmed (FIG. 3A). The expression levels of exogenous OCT4 and SOX2 at that time were confirmed by quantitative PCR. Expression of exogenous gene disappeared on day 6 of high-density culture, and re-expression was void thereafter (FIG. 3B). Furthermore, the expression levels of the endogenous OCT4, TDGF1 and ECAD were confirmed by quantitative PCR. As a result, expression of these pluripotent marker genes was confirmed (FIG. 3C). Similarly, the mRNA expression levels of other pluripotent marker genes were confirmed on a heat map. As a result, mostly similar gene expression profiles were confirmed on day 6 and day 10 (FIG. 3D). Moreover, SSEA4 and ECAD, which are surface antigen markers showing pluripotency, were tested by an immunostaining method. As a result, both surface antigens could be recognized from day 6 (FIG. 3E). […]
iRS cells were plated at a high density (1×10^6 cells) on a 3 cm dish coated with Matrigel, 0.5 mM VPA was added to the MEF-conditioned medium and culture was continued. […] Phosphorylation of mTOR then was measured. […]

CCCC(CCC)C(=O)[O-].[Na+] [VPA, sodium valproate]
amount of phosphorylated mTOR (p-mTOR) [1]: increased
conversion rate to DsRed-negative cells (iRS cells): strikingly high
